The text below walks through data of US12350270B2, “Antimalarial agents” (Merck Sharp & Dohme LLC, priority 2019, dated 2025).

The experiment concerns parasites (ring stage, in human red blood cell culture). Briefly: Parasite LDH growth assay (antiparasite potency, Parasite Assay). The format is cell-based, Plasmodium falciparum. Particulars: 0.7% rings, 2% haematocrit, 72 hours at 37° C., LDH readout of parasite growth. In short, it runs like this: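 Ring-stage parasites at 0.7% parasitemia and 2% haematocrit, in RPMI-Hepes/bicarbonate with 5% heat-inactivated human serum and 0.5% albumax, were added to compound-containing medium. Cultures grew 72 h at 37 °C in gassed humidified boxes. Plates were then frozen overnight at −80 °C, thawed 4 h, and growth was measured by LDH assay.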

The mark [1] stands for this setting: Plasmodium falciparum, Erythrocyte, 72 h.

`CC[C@]1(C)CC(=O)N([C@@H]2CCc3ccc(C(=O)N[C@@H]4c5ccccc5OC[C@@]4(C)O)cc32)C(=N)N1` [Example 100, (3R)-3-[(4R)-4-ethyl-2-imino-4-methyl-6-oxo-hexahydropyrimidin-1-yl]-N-[(3S,4R)-3-hydroxy-3-methyl-chroman-4-yl]indane-5-carboxamide]: under setting [1], the EC50 amounted to 5.3 nM. The same measure, in the same setting: for `CC1(C)CC(=O)N(C2CC(C)(C)c3ccc(C(=O)N[C@@H]4c5ccccc5OC[C@H]4O)cc32)C(=N)N1` (stereo partly drawn) [Example 101, N-[(3S,4R)-3-hydroxychroman-4-yl]-3-(2-imino-4,4-dimethyl-6-oxo-hexahydropyrimidin-1-yl)-1,1-dimethyl-indane-5-carboxamide] the value was 46.7 nM; for `CC[C@]1(C)CC(=O)N([C@@H]2C[C@@H](C)Oc3ccc(C(=O)N[C@@H]4c5ccccc5C[C@H]4O)cc32)C(=N)N1` [Example 102, (2R,4R)-4-[(4R)-4-ethyl-2-imino-4-methyl-6-oxo-hexahydropyrimidin-1-yl]-N-[(1R,2R)-2-hydroxyindan-1-yl]-2-methyl-chromane-6-carboxamide], 14 nM; for `C[C@@H]1C[C@@H](N2C(=N)NC(C)(C)CC2=O)c2cc(C(=O)N[C@@H]3c4ccccc4OC[C@]3(C)O)ccc21` [Example 103, (1R,3R)-N-[(3R,4R)-3-hydroxy-3-methyl-chroman-4-yl]-3-(2-imino-4,4-dimethyl-6-oxo-hexahydropyrimidin-1-yl)-1-methyl-indane-5-carboxamide], 6.1 nM. Under setting [1], `C[C@@H]1C[C@@H](N2C(=N)NC(C)(C)CC2=O)c2cc(C(=O)N[C@@H]3c4ccccc4OC[C@@]3(C)O)ccc21` [Example 104, (1R,3R)-N-[(3S,4R)-3-hydroxy-3-methyl-chroman-4-yl]-3-(2-imino-4,4-dimethyl-6-oxo-hexahydropyrimidin-1-yl)-1-methyl-indane-5-carboxamide] registered an EC50 of 5 nM. Regarding `CCC1(CC)CC(=O)N(C2Cc3ccc(C(=O)N[C@@H]4c5ccccc5OC[C@@]4(C)O)cc32)C(=N)N1` (stereo partly drawn) [Example 105, 8-(4,4-diethyl-2-imino-6-oxo-hexahydropyrimidin-1-yl)-N-[(3S,4R)-3-hydroxy-3-methyl-chroman-4-yl]bicyclo[4.2.0]octa-1(6),2,4-triene-3-carboxamide], the EC50 under setting [1] was found to be 8.8 nM. Against the preceding compound, the EC50 is about 1.8-fold higher. As for `CC1(C)CC(=O)N([C@@H]2CCOc3ccc(C(=O)N[C@H]4CC(C)(C)Oc5ccccc54)cc32)C(=N)N1` [Example 106, (4R)-N-[(4S)-2,2-dimethylchroman-4-yl]-4-(2-imino-4,4-dimethyl-6-oxo-hexahydropyrimidin-1-yl)chromane-6-carboxamide], the EC50 turned out to be 6.6 nM. Regarding `CC1(C)CC(=O)N(C2c3cc(C(=O)N[C@@H]4c5ccccc5C[C@@]4(C)O)ccc3OC2(C)C)C(=N)N1` (stereo partly drawn) [Example 107, N-[(1R,2R)-2-hydroxy-2-methyl-indan-1-yl]-3-(2-imino-4,4-dimethyl-6-oxo-hexahydropyrimidin-1-yl)-2,2-dimethyl-3H-benzofuran-5-carboxamide], under setting [1], the EC50 came out at 222 nM. This counts as sub-micromolar. The compound `CC1(C)CC(=O)N(C2c3cc(C(=O)N[C@@H]4c5ccccc5C[C@]4(C)O)ccc3OC2(C)C)C(=N)N1` (stereo partly drawn) [Example 108, N-[(1R,2S)-2-hydroxy-2-methyl-indan-1-yl]-3-(2-imino-4,4-dimethyl-6-oxo-hexahydropyrimidin-1-yl)-2,2-dimethyl-3H-benzofuran-5-carboxamide] displayed a half-maximal effective concentration (EC50) under setting [1] of 74.3 nM. Consider `CO[C@@H]1COc2ccccc2[C@H]1NC(=O)c1ccc2c(c1)[C@H](N1C(=N)NC(C)(C)CC1=O)CCO2` [Example 109, (4R)-4-(2-imino-4,4-dimethyl-6-oxo-hexahydropyrimidin-1-yl)-N-[(3S,4R)-3-methoxychroman-4-yl]chromane-6-carboxamide], for which a half-maximal effect under setting [1] (EC50) was put at 14 nM. Same read-out and setting: for `COC1COc2ccc(C(=O)N[C@@H]3c4ccccc4C[C@H]3O)cc2C1N1C(=N)NC(C)(C)CC1=O` (stereo partly drawn) [Example 110, N-[(1R,2R)-2-hydroxyindan-1-yl]-4-(2-imino-4,4-dimethyl-6-oxo-hexahydropyrimidin-1-yl)-3-methoxy-chromane-6-carboxamide] the value was 60 nM; for `CCC1(CC)CC(=O)N([C@@H]2CCOc3ccc(C(=O)N[C@@H](C)c4ccccc4OC)cc32)C(=N)N1` [Example 111, (4R)-4-(4,4-diethyl-2-imino-6-oxo-hexahydropyrimidin-1-yl)-N-[(1S)-1-(2-methoxyphenyl)ethyl]chromane-6-carboxamide], 90 nM; for `CC1(C)CC(=O)N([C@@H]2CCOc3ccc(C(=O)N[C@@H]4c5cc(F)ccc5OC[C@H]4O)cc32)C(=N)N1` [Example 112, (4R)-N-[(3S,4R)-6-fluoro-3-hydroxy-chroman-4-yl]-4-(2-imino-4,4-dimethyl-6-oxo-hexahydropyrimidin-1-yl)chromane-6-carboxamide], 11.4 nM. Under setting [1], `CC1(C)CC(=O)N([C@@H]2CC(C)(C)c3ccc(C(=O)N[C@H]4CC(C)(C)Oc5ccccc54)cc32)C(=N)N1` [Example 113, (3R)-N-[(4S)-2,2-dimethylchroman-4-yl]-3-(2-imino-4,4-dimethyl-6-oxo-hexahydropyrimidin-1-yl)-1,1-dimethyl-indane-5-carboxamide] returned an EC50 of 16.4 nM. For `CCC1(CC)CC(=O)N([C@@H]2CCCc3ccc(C(=O)N[C@@H]4c5ccccc5C[C@@]4(C)O)cc32)C(=N)N1` [Example 114, (4R)-4-(4,4-diethyl-2-imino-6-oxo-hexahydropyrimidin-1-yl)-N-[(1R,2R)-2-hydroxy-2-methyl-indan-1-yl]tetralin-6-carboxamide], the midpoint of the response under setting [1], the EC50, lay at 1.8 nM. The same measure, in the same setting: for `CCC1(CC)CC(=O)N([C@@H]2C[C@@H](OC)c3ccc(C(=O)N[C@@H]4c5ccccc5C[C@H]4O)cc32)C(=N)N1` [Example 115, (1R,3R)-3-(4,4-diethyl-2-imino-6-oxo-hexahydropyrimidin-1-yl)-N-[(1R,2R)-2-hydroxyindan-1-yl]-1-methoxy-indane-5-carboxamide] the value was 3.6 nM; for `CCC1(CC)CC(=O)N([C@H]2C[C@@H](OC)c3ccc(C(=O)N[C@@H]4c5ccccc5C[C@H]4O)cc32)C(=N)N1` [Example 116, (1R,3S)-3-(4,4-diethyl-2-imino-6-oxo-hexahydropyrimidin-1-yl)-N-[(1R,2R)-2-hydroxyindan-1-yl]-1-methoxy-indane-5-carboxamide], 210 nM; for `CCC1(CC)CC(=O)N([C@@H]2C[C@H](OC)c3ccc(C(=O)N[C@@H]4c5ccccc5C[C@H]4O)cc32)C(=N)N1` [Example 117, (1S,3R)-3-(4,4-diethyl-2-imino-6-oxo-hexahydropyrimidin-1-yl)-N-[(1R,2R)-2-hydroxyindan-1-yl]-1-methoxy-indane-5-carboxamide], 2.5 nM. For `CCC1(CC)CC(=O)N([C@H]2c3cc(C(=O)N[C@@H]4c5ccccc5C[C@H]4O)ccc3OC[C@H]2C)C(=N)N1` [Example 118, (3S,4R)-4-(4,4-diethyl-2-imino-6-oxo-hexahydropyrimidin-1-yl)-N-[(1R,2R)-2-hydroxyindan-1-yl]-3-methyl-chromane-6-carboxamide], under setting [1], the EC50 stood at 0.9 nM. This EC50 is about 2.8-fold lower than that of the compound before. Consider `CCC1(CC)CC(=O)N([C@@H]2CCOc3ccc(C(=O)NC4CCCOc5ccccc54)cc32)C(=N)N1` (stereo partly drawn) [Example 119, (4R)-4-(4,4-diethyl-2-imino-6-oxo-hexahydropyrimidin-1-yl)-N-(2,3,4,5-tetrahydro-1-benzoxepin-5-yl)chromane-6-carboxamide], for which the concentration for a half-maximal effect (EC50) under setting [1] is 2.8 nM. For `CCC1(CC)CC(=O)N([C@H]2c3cc(C(=O)N[C@@H]4c5ccccc5C[C@H]4O)ccc3OC[C@@H]2C)C(=N)N1` [Example 120, (3R,4R)-4-(4,4-diethyl-2-imino-6-oxo-hexahydropyrimidin-1-yl)-N-[(1R,2R)-2-hydroxyindan-1-yl]-3-methyl-chromane-6-carboxamide], the EC50 under setting [1] stood at 0.8 nM. Same read-out and setting: for `CC[C@]1(C)CC(=O)N([C@@H]2CCc3ccc(C(=O)N[C@@H]4c5ccccc5OC(C)(C)[C@H]4O)cc32)C(=N)N1` [Example 121, (3R)-3-[(4R)-4-ethyl-2-imino-4-methyl-6-oxo-hexahydropyrimidin-1-yl]-N-[(3S,4R)-3-hydroxy-2,2-dimethyl-chroman-4-yl]indane-5-carboxamide] the value was 0.6 nM.

Turning to `CCC1(CC)CC(=O)N([C@@H]2CCc3ccc(C(=O)N[C@@H]4c5ccccc5OC[C@]4(C)O)cc32)C(=N)N1` [Example 122, (3R)-3-(4,4-diethyl-2-imino-6-oxo-hexahydropyrimidin-1-yl)-N-[(3R,4R)-3-hydroxy-3-methyl-chroman-4-yl]indane-5-carboxamide], the half-maximal effective concentration (EC50) under setting [1] is 3.9 nM. The same measure, in the same setting: the figure for `CCC1(CC)CC(=O)N([C@@H]2CCc3ccc(C(=O)N[C@@H]4c5ccccc5OC[C@@]4(C)O)cc32)C(=N)N1` [Example 123, (3R)-3-(4,4-diethyl-2-imino-6-oxo-hexahydropyrimidin-1-yl)-N-[(3S,4R)-3-hydroxy-3-methyl-chroman-4-yl]indane-5-carboxamide] is 2.8 nM; for `CC1(C)CC(=O)N([C@@H]2CC(C)(C)c3ccc(C(=O)N[C@@H]4c5ccccc5OC[C@@]4(C)O)cc32)C(=N)N1` [Example 124, (3R)-N-[(3S,4R)-3-hydroxy-3-methyl-chroman-4-yl]-3-(2-imino-4,4-dimethyl-6-oxo-hexahydropyrimidin-1-yl)-1,1-dimethyl-indane-5-carboxamide] it is 57.5 nM; for `CCC1(CC)CC(=O)N([C@@H]2CCCc3ccc(C(=O)N[C@@H]4c5ccccc5OC[C@H]4O)cc32)C(=N)N1` [Example 125, (4R)-4-(4,4-diethyl-2-imino-6-oxo-hexahydropyrimidin-1-yl)-N-[(3S,4R)-3-hydroxychroman-4-yl]tetralin-6-carboxamide] it is 2.1 nM. Under setting [1], `CC[C@]1(C)CC(=O)N([C@H]2c3cc(C(=O)N[C@@H]4c5ccccc5C[C@H]4O)ccc3OCC2(C)C)C(=N)N1` [Example 126, (4R)-4-[(4R)-4-ethyl-2-imino-4-methyl-6-oxo-hexahydropyrimidin-1-yl]-N-[(1R,2R)-2-hydroxyindan-1-yl]-3,3-dimethyl-chromane-6-carboxamide] gave a concentration for a half-maximal effect (EC50) of 14.3 nM.
